Values of other authors, collected in patent publication US20070105758A1 (priority 2005, published 2007).

Conditions: oral route in sensitive individuals

NCCc1c[nH]cn1 [histamine]
histamine concentration known to be biologically active: > 5 nM
